Measured values taken from patent US12062422B2, “System, method and computer-accessible medium for use of heavy water as a probe for imaging metabolic activities” (The Trustees of Columbia University in the City of New York, priority 2018, dated 2024).

Tests used:
[1] = test system: HeLa cells; test: SRS imaging of lipid droplets in HeLa cells, D-labeled fatty acids versus D2O; assay type: cell-based; conditions: for CDL signal distribution, lipid droplets: 10 μM D-labeled fatty acid, 6 hours
Experimental: For live-cell imaging, HeLa and COS-7 cells were seeded onto a glass-bottom dish (e.g., MatTek) and grown for 6 to 8 hours in regular DMEM before the medium was changed to DMEM containing 70% D2O. Cells were then grown for different periods of time before being placed onto the stage for SRS imaging. When treating cells with D-labeled fatty acids, they were first reacted with sodium hydroxide and then coupled to bovine serum albumin (“BSA”) in about 2:1 molar ratio to make 2 mM stock solution. Those stock solutions were then added to the medium to reach the final working concentration (e.g., 10 μM).
FIGS. 4A-4E illustrate the exemplary DO-SRS visualizes de novo lipogenesis in cultured cells and in C. elegans. […] The number of lipid droplets formed in the three conditions were quantified (mean±s.d.; N=5 for D-OA, 15 for D-PA, and 8 for D2O; double asterisks indicate p<0.01 in an unpaired t-test). CHL signal for D2O treatment confirmed the presence of few lipid droplets. […] Live bacteria were labeled by deuterium (element 405), and killed bacteria were not labeled (element 410). […] E. coli OP50 were seeded onto the D2O plates 24 hours before the experiments. Scale bar=20 μm. […] CDL mean intensity was plotted. For all C. elegans experiments, at least 8 animals were imaged for each condition to calculate mean intensity; mean±s.d. of the mean intensity was shown.

[2] = in vivo; cited from earlier work
[3] = mouse, in vivo; cited from earlier work
[4] = test system: C. elegans; test: Toxicity of D2O on C. elegans (lethality, sterility, brood size, gonad development); assay type: in vivo
Experimental: C. elegans wild type (e.g., N2) and mutant strains were maintained at 20° C. using nematode growth media (“NGM”) and E. coli strain OP50 as a food source. (See. e.g., Reference 61). Different concentrations of D2O were added to replace H2O in NGM. E. coli OP50 were seeded on D2O-containing NGM plates and grown for 24 hours; worms were then placed at different ages onto those plates for various amount of time. To determine the toxicity of D2O, eggs were prepared using hypochlorite, which made the eggshell porous and permeable to D2O, placed them onto plates containing different concentration of D2O, and counted the number of eggs that could not hatch into normal moving larva. Fourth stage larva were placed onto those plates and counted how many animals became sterile and determined the brood size by counting the total number of hatch larvae from the all the eggs laid by one animal. Three replicates were performed.
(§1) FIGS. 10A-10E show exemplary graphs and images that illustrate toxicity of D2O on cells and C. elegans. […] Three replicates were performed. Mean and s.d. were shown. […] D-labeled OP50 refers to overnight grown culture of E. coli OP50 that were seeded onto the D2O-containing NGM plates 24 hours before the experiment; non-labeled OP50 refers to the experimental setup, in which bacteria were killed by UV after being placed onto the D2O plates and thus was not labeled by deuterium. Each group has 50 worms, and three replicates were made. Mean and s.d. were shown.
50 worms were used for each treatment, and […] replicates were made. Mean and s.d. were shown. […] Scale bar=20 μm.

[5] = test system: HeLa cells; test: CellTiter-Glo Luminescent Cell Viability Assay, cellular toxicity of D2O; assay type: cell-based; conditions: medium containing D2O
Experimental: To determine cellular toxicity, HeLa cells and COS-7 cells were first seeded in […] plates at about 500 per cm^2 and grown overnight; the culture was then changed to DMEM containing different concentration (e.g., 0% to 100%) of D2O for about 48 hours. The viability of cell was accessed using the CellTiter-Glo® Luminescent Cell Viability Assay (e.g., Promega) according to the manufacturer's protocol. Cells cultured in pure DMEM medium were used as control and wells containing only medium without cells for background luminescence. Viability was calculated using the background-corrected […] as follows: Viability (%)=Absorbance of experiment well/Absorbance of control well×100%. Three replicates were performed.
as §1

[6] = test system: mice; test: Injection of D-PA into mice, SRS imaging of CDL signal; assay type: in vivo; conditions: intraperitoneal bolus injection of 96 μmol
Experimental: To inject D-labeled palmitic acids (“D-Pas”) intravenously, mice were anesthetized by isoflurane, and one of the carotid arteries was cannulated for the implantation of a catheter. A syringe filled with 4 mM D-PA dissolved in mammalian Ringer's solution was then connected with the implanted catheter, and D-PA solution was perfused at 0.001 ml/min using a syringe pump (e.g., AL-1000, WPI). The administration lasted for 8 hours every day for three consecutive days before the mice were sacrificed and their organs were harvested, fixed, sectioned, and imaged by SRS. To inject D-PA intraperitoneally, 0.16 ml of 600 mM D-PA emulsion was injected into the lower right side of abdomen according to a previous method. (See, e.g., Reference 64). 17 hours later, the mice were sacrificed and their tissues were collected and imaged.
FIGS. 13A-13C show exemplary images that illustrate imaging de novo biosynthesis in various mouse organs. […] Lipid-rich sebaceous glands and adipose tissues were harvested from adult mice that drank 25% D2O for 8 and 15 days, respectively. Myelinated axon fibers of internal capsule were harvested from P11 mouse pups that were fed on milk produced by mother mice drinking 25% D2O for 6 days before imaging. […] Tissues were harvested, fixed, and imaged 17 hours after the injection. […] Scale bar=[…].

[7] = test system: endoplasmic reticulum; conditions: approximately 200 μM; cited from earlier work
[8] = test system: HeLa cells; test: Raman spectra of D2O-treated HeLa cells with protein or lipid synthesis inhibitors; assay type: cell-based; conditions: 24 hours
Experimental: For inhibitor treatments, cells were first grown in glass bottom dishes with DMEM made of H2O overnight, and then the medium was changed to 70% D2O DMEM containing either 10 nM fatty acid synthase inhibitor TVB-3166 (e.g., Sigma CAS 1533438-83-3) or 1 μM protein synthesis inhibitor anisomycin (e.g., Sigma CAS 22862-76-6). Cells were then cultured for 24 hours, imaged by SRS microscopy, and fixed by 4% paraformaldehyde for spontaneous Raman spectroscopy.
Cells grown in DMEM made of 100% H2O were used as control.

For `[2H]O[2H]` [D2O, deuterium oxide], the “lipid droplets in CDL and CHL channels” value ([1]; 70% D2O, 24 hours) is listed as “very few lipid droplets”, the adverse symptoms [2] is listed as “does not cause any adverse symptoms” and the body water enrichment [2] is listed as “approximately 2%”. The “D2O enrichment that did not cause any effect on physiological processes” value [3] was “below 20%”, the gonad development ([4]; 60% D2O, animals developed from L4 to adults on D2O plates) was “gonad developed normally” and the gonad development ([4]; 80% D2O) was “gonad development was disrupted”. The “proliferation of the germ cells” value ([4]; 80% D2O) was “appeared to be affected”, the “D2O concentration with no observable toxicity and no effect on cell division” value ([4]; C. elegans) was < 60% and the embryo formation ([4]; in vivo) was “normal embryos were formed”. For the same compound, the “embryo formation in the uterus” value ([4]; in vivo) was “no embryos were formed” and the “D2O concentration above which toxicity arises” value [5] was “exceeded 80%”.

For `[2H]OC(=O)C([2H])([2H])C([2H])([2H])C([2H])([2H])C([2H])([2H])C([2H])([2H])C([2H])([2H])C([2H])([2H])/C([2H])=C(/[2H])C([2H])([2H])C([2H])([2H])C([2H])([2H])C([2H])([2H])C([2H])([2H])C([2H])([2H])C([2H])([2H])C([2H])([2H])[2H]` [D-OA, D34-oleic acids], the “number of lipid droplets, comparison” value ([1]; 10 μM) was “remarkably more lipid droplets than D-PA” and the “CDL signal distribution, lipid droplets” value [1] was “accumulation of CDL signal in lipid droplets”.

For `[2H]C([2H])([2H])C([2H])([2H])C([2H])([2H])C([2H])([2H])C([2H])([2H])C([2H])([2H])C([2H])([2H])C([2H])([2H])C([2H])([2H])C([2H])([2H])C([2H])([2H])C([2H])([2H])C([2H])([2H])C([2H])([2H])C([2H])([2H])C(=O)O` [D-PA, D31-palmitic acids], the “CDL signal distribution, lipid droplets” value [1] was “accumulation of CDL signal in lipid droplets” and the “CDL signal in pancreas” value [6] was “accumulation of CDL signal in the ER membrane of pancreatic cells”.

For `CCCCCCCC/C=C\CCCCCCCC(=O)O` [OA, oleic acid], the “effect on endoplasmic reticulum membrane” value [7] is listed as “not”.

In the case of `CCCCCCCCCCCCCCCC(=O)O` [PA, palmitic acid], the “effect on endoplasmic reticulum membrane” value [7] is listed as “drove the formation of solid-like microdomain and membrane phase separation in endoplasmic reticulum”.

In the case of `COc1ccc(C[C@H]2NC[C@H](O)[C@H]2OC(C)=O)cc1` [anisomycin], the “peak of remaining C-D Raman signal” value ([8]; 1 μM anisomycin, 70% D2O DMEM, remaining D-labeled lipid signal) is reported as 2135 cm⁻¹.

With TVB-3166 the “peak of remaining C-D Raman signal” value ([8]; 10 nM TVB-3166, 70% D2O DMEM, remaining D-labeled protein signal) was 2185 cm⁻¹.
